# “Also recorded” adds a separate entry of the source.
# Columns and labels:
# [1] = tested on: GFAP; assay: GFAP immunohistochemistry (astroglial activation) in brain of CBE-treated mice; assay type: in vivo, C57BL/6 mice; conditions: single 200 mg/kg, 48 h
# Experimental: (§1) The administration paradigm is depicted in FIG. 2. Mice (C57BL/6) were maintained on a 12 h light-dark cycle and given food and drinking water ad libitum. All animal procedures and care methods were approved by the Institutional Animal Care and Usage Committee. In experiments to test the effects of CBE on α-synuclein protein, C57BL/6 male mice, aged 8 weeks, were used as previously described with some modifications (Kanfer et al., 1975, Adachi and Volk, 1977, Kanfer et al., 1982). Mice (n=8/group) received a single i. p. injection of 200 mg/kg CBE (Sigma) in DMSO or the vehicle alone and killed 2 days after injection. For Western blot analyses, brains were removed, dissected on ice and frozen on dry ice until needed (Manning-Bog et al., 2002, Purisai et al., 2005). For experiments utilizing immunohistochemistry, brains were immersion fixed in 4% paraformaldehyde and successively cryoprotected in 10 and 30% sucrose over the course of 72 h (Manning-Bog et al., 2002, Manning-Bog et al., 2003). […]
# Substantia nigra-containing tissue sections were immunostained using an antibody for the astrocytic marker, glial fibrillary acidic protein (GFAP). […] Alternatively, it may be that upregulation is responsible for increased α-synuclein levels in astrocytes. α-synuclein has been detected in cultured human astrocytes, and its expression level is responsive to cytokine exposure (Tanji et al., 2001).
# [2] = tested on: nigral neurons; assay: Silver grain accumulation (degenerating neurons) in substantia nigra of CBE-treated mice; assay type: in vivo; conditions: CBE- vs. DMSO-treated mice
# [3] = tested on: α-synuclein mRNA; conditions: astroglial cultures challenged with CBE; cited from earlier work
# [4] = tested on: SH-SY5Y cells; assay: Overt toxicity in SH-SY5Y cells treated with GCase inhibitor; assay type: cell-based, human; conditions: SH-SY5Y cells treated with CBE
# [5] = tested on: α-synuclein; assay: Western blot of α-synuclein in non-differentiated SH-SY5Y cells exposed to CBE; assay type: cell-based, human; conditions: non-differentiated neuroblastoma cells, 48 h exposure
# Experimental: (§2) The treatment paradigm is depicted in FIG. 1. SH-SY5Y cells were grown in Dulbecco's modified Eagle medium with 10% fetal calf serum, 2 mM glutamine, and were subcultured 1:5 with TrypLE (GIBCO/Invitrogen; Carlsbad, Calif.) using standard tissue culture techniques. The cells were differentiated in neurobasal media supplemented with B-27 and 40 μM retinoic acid for 7 days (Pahlman et al., 1984). Cells were exposed to CBE at doses of 0, 12.5, 25, 50, 100 or 200 μM in dimethyl sulfoxide (DMSO; Sigma Chemicals; St. Louis, Mo.) for 48 h at 37° C. At this time, cultures were washed with HBSS and trypsinized for 10 min followed by centrifugation at 1,000×g for 10 min to pellet cells. Media was removed, and cells were lysed in 10 mM Tris/1 mM EDTA/protease inhibitor cocktail (1:1000; Sigma) by sonication. Samples were centrifuged at 1,000×g for 10 min; the supernatant fraction was decanted from particulate fraction. Following determination of protein concentration using the BCA protein assay (Pierce Chemicals, Rockford, Ill.), samples were frozen until used for Western blot analysis experiments.
# To test determine if the inhibition of GCase would elicit changes in cellular α-synuclein level, the protein levels were evaluated by using Western blot analysis in non-differentiated SH-SY5Y cells and cells differentiated to the neuronal phenotype, at 48 h following exposure to CBE. […]
# [6] = tested on: α-synuclein; assay: α-synuclein immunohistochemistry in brain of CBE-treated mice; assay type: in vivo, C57BL/6 mice; conditions: single 200 mg/kg, 48 h
# Experimental: as §1, with “2003). Brains were sectioned at 40-μm intervals and stored in cryopreservative solution at −20° C. until needed.” for “2003).”
# The effects of CBE exposure on α-synuclein within the ventral mesencephalon were also assessed histologically with immunohistochemistry. […]
# [7] = tested on: α-synuclein; assay: Western blot of α-synuclein in differentiated SH-SY5Y cells exposed to CBE; assay type: cell-based, human
# Experimental: as §2
# Fractions from ventral mesencephalon separated by the centrifugation were utilized for immunoblotting experiments. Following homogenization in 10 mM Tris/1 mM EDTA/protease inhibitor cocktail (1:1000; Sigma, St. Louis, Mo.) by sonication, samples were centrifuged at 1,000×g for […]. The supernatant fraction (S1) was decanted and stored, and the pellet fraction containing nuclei and large membrane fragments were reconstituted in homogenization buffer (P1 fraction). The protein concentration was measured. After proteins were separated by SDS-PAGE and transferred to nitrocellulose, the blots were blocked and incubated overnight at 4° C. with anti-α-synuclein (Signet; Novus Biologicals, Littleton, Colo.; Abcam, Cambridge, Mass.; Santa Cruz Biotechnology, Santa Cruz, Calif.) or anti-GAPDH (Sigma). Appropriate secondary antibodies conjugated to HRP were applied, and blots were incubated with a chemiluminescent substrate (Pierce) and exposed to Kodak X-Omat Blue Film (Kodak, Rochester, N.Y.). Mouse or rabbit IgG was used in lieu of the primary antibody to ensure specificity in control experiments.
# To test determine if the inhibition of GCase would elicit changes in cellular α-synuclein level, the protein levels were evaluated by using Western blot analysis in non-differentiated SH-SY5Y cells and cells differentiated to the neuronal phenotype, at 48 h following exposure to CBE. […] In order to determine whether increased levels of the protein were due to enhanced transcription, RT-PCR was performed to measure transcript levels in SH-SY5Y treated with CBE. […]
# [8] = tested on: α-synuclein; assay: α-synuclein in substantia nigra of aged mice treated sub-chronically with CBE; assay type: in vivo; conditions: sub-chronic CBE vs. DMSO
# Text: It is likely that sustained glucocerebrosidase inhibition promotes increased levels of the α-synuclein expression protein.
# [9] = tested on: α-synuclein; assay: Western blot of α-synuclein in ventral mesencephalon fractions of CBE-treated mice; assay type: in vivo, C57BL/6 mice; conditions: single i.p. 200 mg/kg, 48 h
# Experimental: The administration paradigm is depicted in FIG. 2. Mice (C57BL/6) were maintained on a 12 h light-dark cycle and given food and drinking water ad libitum. All animal procedures and care methods were approved by the Institutional Animal Care and Usage Committee. In experiments to test the effects of CBE on α-synuclein protein, C57BL/6 male mice, aged 8 weeks, were used as previously described with some modifications (Kanfer et al., 1975, Adachi and Volk, 1977, Kanfer et al., 1982). Mice (n=8/group) received a single i. p. injection of 200 mg/kg CBE (Sigma) in DMSO or the vehicle alone and killed 2 days after injection. For Western blot analyses, brains were removed, dissected on ice and frozen on dry ice until needed (Manning-Bog et al., 2002, Purisai et al., 2005). For experiments utilizing immunohistochemistry, brains were immersion fixed in 4% paraformaldehyde and successively cryoprotected in 10 and 30% sucrose over the course of 72 h (Manning-Bog et al., 2002, Manning-Bog et al., 2003). Brains were sectioned at 40-μm intervals and stored in cryopreservative solution at −20° C. until needed.
# Fractions from ventral mesencephalon separated by the centrifugation were utilized for immunoblotting experiments. Following homogenization in 10 mM Tris/1 mM EDTA/protease inhibitor cocktail (1:1000; Sigma, St. Louis, Mo.) by sonication, samples were centrifuged at 1,000×g for […]. The supernatant fraction (S1) was decanted and stored, and the pellet fraction containing nuclei and large membrane fragments were reconstituted in homogenization buffer (P1 fraction). The protein concentration was measured. […]
# C57BL/6 mice were exposed to a single injection of CBE and assessed for changes in α-synuclein at 48 h to determine whether diminished GCase activity is associated with alterations in the protein in vivo, specifically within the substantia nigra. […] In tissue homogenates from ventral mesencephalon of CBE vs. DMSO (vehicle)-treated mice, α-synuclein immunoreactivity was assessed by Western blot analysis.
# [10] = tested on: α-synuclein mRNA; assay: RT-PCR of α-synuclein mRNA in SH-SY5Y cells treated with CBE; assay type: cell-based, human
# Experimental: […] The cDNAs were prepared by reverse transcription (Superscript III; Invitrogen). PCR was performed using the ABI PRISM 7000 Sequence Detection System and primers. The cycle number at which each PCR reaction reached a significant threshold (CT) during the log phase of the amplification was used as a relative measure of transcript expression. The CT of the α-synuclein gene was calibrated against that of the reference gene […].
# To test determine if the inhibition of GCase would elicit changes in cellular α-synuclein level, the protein levels were evaluated by using Western blot analysis in non-differentiated SH-SY5Y cells and cells differentiated to the neuronal phenotype, at 48 h following exposure to CBE. […] In order to determine whether increased levels of the protein were due to enhanced transcription, RT-PCR was performed to measure transcript levels in SH-SY5Y treated with CBE. […] These findings indicate that increased α-synuclein levels observed following CBE exposure are not due to enhanced expression (FIG. 3b).
structure (smiles),measurement,setting,value
"O[C@H]1[C@H](O)[C@@H](O)[C@@H]2O[C@@H]2[C@@H]1O (racemic) [CBE, Conduritol B epoxide]",α-synuclein within astrocytes of substantia nigra (dual-label immunofluorescence),[1],enhanced α-synuclein was also detected within activated astrocytes; also recorded: colocalization of α-synuclein immunoreactivity was observed within astrocytes
same,GFAP immunoreactivity / astroglial activation in substantia nigra,[1]; CBE vs. vehicle,"astroglial activation, as observed by GFAP immunoreactivity, was apparent; also recorded: apparent increase; also recorded: Glial activation was robust"
same,silver grains in nigral neurons (degenerating neurons),[2],Accumulation of silver grains in nigral neurons
same,expression of α-synuclein mRNA,[3],enhanced expression of α-synuclein mRNA
same,overt toxicity within cells,[4],no overt toxicity
same,α-synuclein protein levels (Western blot),[5],No change in α-synuclein was detected
same,"α-synuclein in other brain regions (cortex, hippocampus)",[6],No obvious changes in α-synuclein; also recorded: No alteration in protein levels
same,α-synuclein immunoreactivity in substantia nigra neurons,[6]; CBE vs. vehicle,robust immunoreactivity was observed within the cell bodies; also recorded: enhanced immunoreactivity for α-synuclein was detected within the cytoplasm and cell nuclei; also recorded: accumulation of the protein within neuronal cell bodies; also recorded: apparent increase; also recorded: accumulation of α-synuclein (FITC) within cell bodies and processes
same,immunoreactivity for α-synuclein in tissue culture,[7]; CBE-exposed neuroblastoma cells differentiated to neuronal phenotype,increased immunoreactivity for α-synuclein
same,CBE concentrations at which increased α-synuclein levels were seen,"[7]; differentiated SH-SY5Y cells, 48 h, Western blot",50 to 200 µM
same,dose at which increased α-synuclein protein levels peak,"[7]; differentiated SH-SY5Y cells, 48 h, doses 0-200 μM tested",50 µM
same,α-synuclein protein levels (Western blot),"[7]; differentiated SH-SY5Y cells, 48 h exposure, CBE vs. vehicle",increased levels of α-synuclein protein were observed
same,α-synuclein expression within substantia nigra,[8],Increased α-synuclein expression
same,higher molecular forms of α-synuclein (SDS-stable aggregates),[9],No immunoreactivity for higher molecular forms of α-synuclein
same,"α-synuclein levels in P1 (particulate) fraction, monomeric 19 kDa band","[9]; CBE vs. DMSO, 200 mg/kg",Denser α-synuclein-positive bands; also recorded: levels of α-synuclein were increased in the particulate fraction; also recorded: an increase in α-synuclein levels
same,α-synuclein levels in S1 (supernatant) fraction,"[9]; CBE vs. DMSO, 200 mg/kg",no alteration; also recorded: no change
same,α-synuclein gene expression (RT-PCR),"[10]; SH-SY5Y, any dose tested, 24 h following CBE treatment",No change in α-synuclein gene expression was detected
same,"α-synuclein transcription (mRNA, RT-PCR)","[10]; differentiated SH-SY5Y, increasing concentrations of CBE, (FIG. 3B legend)",No change in α-synuclein transcription was detected

# From patent publication US20150044193A1, “COMPOSITIONS AND METHODS FOR THE TREATMENT OF ALTERED a-SYNUCLEIN FUNCTION” (Neuraltus Pharmaceuticals, Inc., priority 2008, published 2015)
